Experimental findings from patent EP2914280B1, “SOMATOSTATIN-DOPAMINE CHIMERIC ANALOGS” (IPSEN PHARMA S.A.S., priority 2012, dated 2014) are described below.

Structures are written as SMILES. Like-named read-outs stand apart in the source and are kept apart here. Numbered stars: 1 amine (or outer) side, 2 acyl side, 3 side chain; on linkers, the order of the positions; unused ones are H or OH. Bridge positions count the residues as written; N and C are the ends. Square brackets hold non-standard residues; d marks the D form. Peptide text beside a SMILES is read from it. * marks the point of attachment. X1 = CN1C[C@H](CSCCN(CCSC[C@@H]2C[C@@H]3c4cccc5[nH]cc(c45)C[C@H]3N(C)C2)[C@H](CCCCN[*:2])C(=O)[*:1])C[C@@H]2c3cccc4[nH]cc(c34)C[C@H]21; X2 = CN1C[C@H](CSCC(=O)*)C[C@@H]2c3cccc4[nH]cc(c34)C[C@H]21; Phe(4-F) = N[C@@H](Cc1ccc(F)cc1)C(=O)O; 4Pal = N[C@@H](Cc1ccncc1)C(=O)O

The target in test [1] is T1, hSSTR2 (Homo sapiens, UniProt P30874).
T1 construct: host or cells: 'Cells expressing hSSTR2'
The test can be described thus: Intracellular calcium mobilization assay (FLIPR Calcium 4), hSSTR2.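 Note: agonist activity measured in cells expressing hSSTR2, seeded in 384-well plates, loaded with Calcium 4 dye, read-out as rise in intracellular calcium.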 The class given is cell-based.
Protocol: The ability of select compounds according to the present invention to activate hSSTR2 and hDRD2 was determined by the intracellular calcium mobilization assay using FLIPR Calcium 4 assay kit (Molecular Devices).
Cells expressing hSSTR2 or hDRD2 were plated in 384-well microplates in tissue culture media and incubated for 16-24 hours at 37°C in a humidified atmosphere with 5% CO2. Medium was replaced by loading buffer containing Hank's buffered saline, 20 mM HEPES, 2.5 mM probenecid and Calcium 4 dye, and the plates were incubated at 37°C for 60 minutes.

The target in test [2] is T1, hSSTR2. Put plainly: Somatostatin receptor radioligand binding assay (hSSTR2).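 Note: radioligand displacement on membranes of CHO-K1 cells stably transfected with human SSTR2, specific binding taken as total minus binding left with 1000 nM SRIF-14.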
Protocol: The affinities of a test compound for the human somatostatin receptors were determined by radioligand binding assays in CHO-K1 cells stably transfected with each of the human somatostatin receptor subtypes, hSSTR1-5. […] Clonal cell lines stably expressing each of the somatostatin receptors were obtained by transfection into CHO-K1 cells (ATCC) and subsequently selected with culture media containing 0.8 mg/mL of G418 (Life Technologies).
Membranes for in vitro receptor binding assays were obtained by the following procedures. […] The supernatant containing the plasma membranes was centrifuged at 100,000 x g for 30 minutes and the pellet was resuspended in buffer containing 20 mM glycine-glycine, 1 mM MgCl2, 250 mM sucrose, pH 7.2, for storage at -80°C.
For the SSTR1, 2 and 5 assays, membranes and various concentrations of test compounds were incubated in 96-well plates for 60 minutes at 25°C with 0.05 nM [^125I-Tyr^11]-SRIF-14 (for hSSTR1; PerkinElmer Life Science), 0.05 nM [^125I-Tyr]-seglitide (for hSSTR2; PerkinElmer Life Science) or 0.05 nM [^125I-Tyr]-[DPhe-cyclo(Cys-Tyr-DTrp-Lys-Val-Cys)-Thr-NH2] (for hSSTR5; PerkinElmer Life Science) in 50 mM HEPES, 0.2% BSA, 0.1 mM MgCl2, pH 7.5.
The incubations were terminated by rapid filtration through GF/C glass microfiber filter plates (pre-wet with 0.3% polyethyleneimine and 0.1 % BSA) using a 96-well cell harvester (Brandel). Plates were washed six times with 1 mL/well aliquots of ice-cold buffer containing 50 mM Tris buffer, pH 7.7. Specific binding was defined as the total radioligand bound minus the bound in the presence of 1000 nM SRIF-14.
Test [3] addresses T2, hDRD2 (Homo sapiens, UniProt P14416). Put plainly: biochemical. On the set-up: expressed in transfected cells; host or cells: CHO-K1, pcDNA3.1/GS, zeocin-selected clonal line; membranes. The class given is binding.
The target of test [4] is T2, hDRD2. Put plainly: cell-based. On the set-up: host or cells: 'Cells expressing hDRD2'. The note with it: for Emax: read-out: hDRD2 %Emax ± SEM.
Another test deals with T3, hSSTR1 (Homo sapiens, UniProt P30872).
T3 construct: expressed in transfected cells; host or cells: CHO-K1 (ATCC), pcDNA3.1, G418-selected clonal line; membranes
Put plainly: Somatostatin receptor radioligand binding assay (hSSTR1).
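Throughout, for Emax: agonist activity at human DRD2 in DRD2-expressing cells, read as intracellular calcium mobilization with a FLIPR Calcium 4 fluorescent dye.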

T1 sequence (P30874 whole entry): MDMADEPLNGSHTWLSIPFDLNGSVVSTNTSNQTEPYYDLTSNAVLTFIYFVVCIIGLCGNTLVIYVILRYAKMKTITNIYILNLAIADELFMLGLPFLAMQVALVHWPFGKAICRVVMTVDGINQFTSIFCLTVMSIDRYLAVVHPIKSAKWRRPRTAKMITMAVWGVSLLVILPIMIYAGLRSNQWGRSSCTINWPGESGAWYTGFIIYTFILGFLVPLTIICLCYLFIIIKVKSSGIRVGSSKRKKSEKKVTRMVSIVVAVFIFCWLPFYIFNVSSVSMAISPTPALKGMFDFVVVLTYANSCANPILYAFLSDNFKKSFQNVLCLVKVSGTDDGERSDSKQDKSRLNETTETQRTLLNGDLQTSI
T2 sequence (P14416 whole entry): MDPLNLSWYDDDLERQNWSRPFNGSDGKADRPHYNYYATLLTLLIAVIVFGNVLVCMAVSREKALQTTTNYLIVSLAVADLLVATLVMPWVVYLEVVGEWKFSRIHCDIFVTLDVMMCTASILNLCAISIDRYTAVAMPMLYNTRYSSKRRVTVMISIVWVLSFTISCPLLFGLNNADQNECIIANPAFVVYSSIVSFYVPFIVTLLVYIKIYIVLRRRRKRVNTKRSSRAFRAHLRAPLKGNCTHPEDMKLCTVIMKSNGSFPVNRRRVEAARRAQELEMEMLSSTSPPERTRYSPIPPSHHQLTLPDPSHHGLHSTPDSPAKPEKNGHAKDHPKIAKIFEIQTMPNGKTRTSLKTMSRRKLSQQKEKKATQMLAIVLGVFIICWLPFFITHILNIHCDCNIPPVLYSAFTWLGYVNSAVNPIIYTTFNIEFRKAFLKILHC
T3 sequence (P30872 whole entry): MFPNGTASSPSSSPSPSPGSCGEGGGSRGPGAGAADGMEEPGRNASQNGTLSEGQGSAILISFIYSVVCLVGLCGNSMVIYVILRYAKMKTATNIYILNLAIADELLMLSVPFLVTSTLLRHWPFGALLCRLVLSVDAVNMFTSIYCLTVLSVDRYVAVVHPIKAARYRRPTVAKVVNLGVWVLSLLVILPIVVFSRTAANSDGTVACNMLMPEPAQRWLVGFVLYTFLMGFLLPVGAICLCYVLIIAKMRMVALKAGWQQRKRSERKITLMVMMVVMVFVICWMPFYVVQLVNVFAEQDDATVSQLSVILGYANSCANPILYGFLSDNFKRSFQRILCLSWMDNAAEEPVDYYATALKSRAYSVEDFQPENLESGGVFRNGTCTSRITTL

As for `C[C@@H](O)[C@@H]1NC(=O)[C@H](CCCCN)NC(=O)[C@@H](Cc2c[nH]c3ccccc23)NC(=O)[C@H](Cc2ccccc2)NC(=O)[C@H](Cc2ccccc2)NC(=O)[C@H](CCCNC(=N)N)NC(=O)[C@H](NC[C@H](Cc2ccc(O)cc2)NC(=O)CS(=O)(=O)C[C@@H]2C[C@@H]3c4cccc5[nH]cc(c45)C[C@H]3N(C)C2)CCCCNC(=O)[C@H](Cc2ccc(F)cc2)NC1=O` [Compound 19, Dop1(SO2)-Tyr-psi(CH2NH)-cyclo(DLys-Arg-Phe-Phe-DTrp-Lys-Thr-4FPhe)], the EC50 at hSSTR2 [1] worked out at 4.3 ± 1.2 nM; on hDRD2 [4], 701 ± 220 nM. The Ki on hSSTR2 [2] is 0.16 ± 0.12 nM; at hDRD2 [3], over 1000 nM. Besides, at hDRD2 [4], the Emax was found to be 90.7 ± 5.7%.

Turning to `C[C@@H](O)[C@@H]1NC(=O)[C@H](CCCCN)NC(=O)[C@@H](Cc2c[nH]c3ccccc23)NC(=O)[C@H](Cc2ccncc2)NC(=O)[C@H](Cc2ccccc2)NC(=O)[C@H](CCCNC(=N)N)NC(=O)[C@H](NC[C@H](Cc2ccc(O)cc2)NC(=O)CS(=O)(=O)C[C@@H]2C[C@@H]3c4cccc5[nH]cc(c45)C[C@H]3N(C)C2)CCCCNC(=O)[C@H](Cc2ccccc2)NC1=O` [Compound 21, Dop1(SO2)-Tyr-psi(CH2NH)-cyclo(DLys-Arg-Phe-4Pal-DTrp-Lys-Thr-Phe)], the EC50 at hSSTR2 [1] was determined as 0.9 ± 0.1 nM; on hDRD2 [4], 208 ± 26.8 nM. The Ki on hSSTR2 [2] was 0.02 ± 0.01 nM; at hDRD2 [3] it was over 1000 nM. Further, on hDRD2 [4], the Emax came out at 92.1 ± 0.2%.

In the case of `CC(=O)N(CCCNC[C@@H]1C[C@@H]2c3cccc4[nH]cc(c34)C[C@H]2N(C)C1)[C@@H]1CCCCNC(=O)[C@H](Cc2ccc(F)cc2)NC(=O)[C@H]([C@@H](C)O)NC(=O)[C@H](CCCCN)NC(=O)[C@@H](Cc2c[nH]c3ccccc23)NC(=O)[C@H](Cc2ccccc2)NC(=O)[C@H](Cc2ccccc2)NC(=O)[C@H](CCCNC(=N)N)NC1=O` [Compound 22, 3-[N-(D-6-methyl-8β-ergolinylmethyl)]-aminopropionyl-psi(CH2NAc)-cyclo(DLys-Arg-Phe-Phe-DTrp-Lys-Thr-4FPhe)], the EC50 amounted to 27.5 ± 6.7 nM on hSSTR2 [1] and 513 ± 129 nM on hDRD2 [4]. The inhibition constant (Ki) at hSSTR2 [2] is 0.35 ± 0.18 nM; at hDRD2 [3], 200 ± 65 nM. Moreover, the Emax at hDRD2 [4] turned out to be 38.7 ± 8.8%.

As for `C[C@@H](O)[C@@H]1NC(=O)[C@H](CCCCN)NC(=O)[C@@H](Cc2c[nH]c3ccccc23)NC(=O)[C@H](Cc2ccncc2)NC(=O)[C@H](Cc2ccccc2)NC(=O)[C@H](CCCNC(=N)N)NC(=O)[C@H](NCCSC[C@@H]2C[C@@H]3c4cccc5[nH]cc(c45)C[C@H]3N(C)C2)CCCCNC(=O)[C@H](Cc2ccccc2)NC1=O` [Compound 23, Dop1-psi(CH2NH)-cyclo(DLys-Arg-Phe-4Pal-DTrp-Lys-Thr-Phe)], the EC50 at hSSTR2 [1] came to 2.4 ± 0.1 nM; at hDRD2 [4], 34.2 ± 13.7 nM. Further, the “improvement in EC50 over Reference Compound A” value on hSSTR2 [1] (p value (Student's t-test, one-tailed) < 0.05, receptor not named) is “statistically significant improvement in EC50”. The figures for the Ki at hSSTR2 [2] and on hDRD2 [3] were 0.09 nM and 328 ± 19.3 nM, respectively. On hDRD2 [4], the maximal response (Emax) came out at 96.4 ± 5.3%.

In the case of `C[C@@H](O)[C@@H]1NC(=O)[C@H](CCCCN)NC(=O)[C@@H](Cc2c[nH]c3ccccc23)NC(=O)[C@H](Cc2ccccc2)NC(=O)[C@H](Cc2ccccc2)NC(=O)[C@H](CCCNC(=N)N)NC(=O)[C@H](NCCSC[C@@H]2C[C@@H]3c4cccc5[nH]cc(c45)C[C@H]3N(C)C2)CCCCNC(=O)[C@H](Cc2ccccc2)NC1=O` [Compound 26, Dop1-psi(CH2NH)-cyclo(DLys-Arg-Phe-Phe-DTrp-Lys-Thr-Phe)], the results for the EC50 at hSSTR2 [1] and on hDRD2 [4] were 9.8 ± 1.4 nM and 34.1 ± 6.8 nM, respectively. Moreover, the Ki came out at 2.23 ± 0.97 nM at hSSTR2 [2], 309 ± 56.6 nM on hDRD2 [3] and 59 nM at hSSTR1. The maximal effect (Emax) at hDRD2 [4] came out at 93.7 ± 7.2%.

As to `CC(=O)N(CCCN(C(C)=O)[C@@H]1CCCCNC(=O)[C@H](Cc2ccc(F)cc2)NC(=O)[C@H]([C@@H](C)O)NC(=O)[C@H](CCCCN)NC(=O)[C@@H](Cc2c[nH]c3ccccc23)NC(=O)[C@H](Cc2ccccc2)NC(=O)[C@H](Cc2ccccc2)NC(=O)[C@H](CCCNC(=N)N)NC1=O)C[C@@H]1C[C@@H]2c3cccc4[nH]cc(c34)C[C@H]2N(C)C1` [Compound 28, 3-[N-acetyl-N-(D-6-methyl-8β-ergolinylmethyl)]-aminopropionyl-psi(CH2NAc)-cyclo(DLys-Arg-Phe-Phe-DTrp-Lys-Thr-4FPhe)], the values for the EC50 on hSSTR2 [1] and on hDRD2 [4] were 11.8 ± 7.6 nM and 265 ± 104 nM, respectively. In addition, the Ki amounted to 0.75 ± 0.27 nM on hSSTR2 [2] and 39.9 ± 10.4 nM at hDRD2 [3]. Moreover, the Emax at hDRD2 [4] is 56 ± 9.1%.

As to `CC(=O)N(CCCN[C@@H]1CCCCNC(=O)[C@H](Cc2ccc(F)cc2)NC(=O)[C@H]([C@@H](C)O)NC(=O)[C@H](CCCCN)NC(=O)[C@@H](Cc2c[nH]c3ccccc23)NC(=O)[C@H](Cc2ccccc2)NC(=O)[C@H](Cc2ccccc2)NC(=O)[C@H](CCCNC(=N)N)NC1=O)C[C@@H]1C[C@@H]2c3cccc4[nH]cc(c34)C[C@H]2N(C)C1` [Compound 29A, 3-[N-acetyl-(D-6-methyl-8β-ergolinylmethyl)]-aminopropionyl-psi(CH2NH)-cyclo(DLys-Arg-Phe-Phe-DTrp-Lys-Thr-4FPhe)], the EC50 on hSSTR2 [1] came out at 8.2 ± 0.7 nM; on hDRD2 [4] it was 62.7 ± 14.8 nM. The values for the Ki on hSSTR2 [2] and on hDRD2 [3] were 0.13 nM and 46.8 ± 7.4 nM, respectively. The Emax on hDRD2 [4] turned out to be 82.8 ± 6.7%.

As for `C[C@@H](O)[C@@H]1NC(=O)[C@H](CCCCN)NC(=O)[C@@H](Cc2c[nH]c3ccccc23)NC(=O)[C@H](Cc2ccccc2)NC(=O)[C@H](Cc2ccccc2)NC(=O)[C@H](CCCNC(=N)N)NC(=O)[C@@H](NC[C@H](Cc2ccc(O)cc2)NC(=O)CSC[C@@H]2C[C@@H]3c4cccc5[nH]cc(c45)C[C@H]3N(C)C2)CCCCNC(=O)[C@H](Cc2ccccc2)NC1=O` [Compound 31, Dop1-Tyr-psi(CH2NH)-cyclo(Lys-Arg-Phe-Phe-DTrp-Lys-Thr-Phe)], the EC50 on hSSTR2 [1] worked out at 13.3 ± 0.9 nM; on hDRD2 [4] it was 37.7 ± 4.6 nM. Further, the Ki on hSSTR2 [2] stood at 0.51 ± 0.1 nM; on hDRD2 [3] it was 38.6 ± 28.6 nM. In addition, the Emax at hDRD2 [4] was determined as 94.8 ± 9.7%.

Regarding `C[C@@H](O)[C@@H]1NC(=O)[C@H](CCCCN)NC(=O)[C@@H](Cc2c[nH]c3ccccc23)NC(=O)[C@H](Cc2ccccc2)NC(=O)[C@H](Cc2ccccc2)NC(=O)[C@H](CCCNC(=N)N)NC(=O)[C@H](NC(=O)CSC[C@@H]2C[C@@H]3c4cccc5[nH]cc(c45)C[C@H]3N(C)C2)CCCCNC(=O)[C@H](Cc2ccc(F)cc2)NC1=O` [Compound 34, Dop1-cyclo(DLys-Arg-Phe-Phe-DTrp-Lys-Thr-4FPhe)] (X2-[dK]RFF[dW]KT[Phe(4-F)]; lactam 1-C), the EC50 at hSSTR2 [1] is 14.6 ± 5.7 nM; at hDRD2 [4], 72.7 nM. The Ki was determined as 4.55 ± 1.15 nM at hSSTR2 [2] and 299 nM at hDRD2 [3]. The Emax on hDRD2 [4] is 77.9%.

For `C[C@@H](O)[C@@H]1NC(=O)[C@H](CCCCN)NC(=O)[C@@H](Cc2c[nH]c3ccccc23)NC(=O)[C@H](Cc2ccncc2)NC(=O)[C@H](Cc2ccccc2)NC(=O)[C@H](CCCNC(=N)N)NC(=O)[C@H](N(CCSC[C@@H]2C[C@@H]3c4cccc5[nH]cc(c45)C[C@H]3N(C)C2)CCSC[C@@H]2C[C@@H]3c4cccc5[nH]cc(c45)C[C@H]3N(C)C2)CCCCNC(=O)[C@H](Cc2ccc(O)cc2)NC1=O` [Compound 35, bis[Dop1-psi(CH2N)]-cyclo(DLys-Arg-Phe-4Pal-DTrp-Lys-Thr-Tyr)] (RF[4Pal][dW]KTY; linker N-C via X1), the EC50 on hSSTR2 [1] (Table IV, cells expressing hSSTR2, read-out: hSSTR2 EC50 (nM) ± SEM) came to 19.4 ± 6.2 nM; on hDRD2 [4] it was 97.4 ± 21.1 nM. The Ki on hSSTR2 [2] (CHO-K1 cell membranes, 0.05 nM [125I-Tyr]-seglitide, 60 minutes at 25°C, read-out: hSSTR2 Ki (nM) ± SEM) was found to be 0.17 ± 0.06 nM; at hDRD2 [3], 345 ± 40.4 nM; on hSSTR1 (CHO-K1 cell membranes, 0.05 nM [125I-Tyr11]-SRIF-14, 60 minutes at 25°C, read-out: hSSTR1 Ki (nM) ± SEM) it was 99.7 nM. Further, the Emax at hDRD2 [4] turned out to be 103 ± 1.4%.

On to `C[C@@H](O)[C@@H]1NC(=O)[C@H](CCCCN)NC(=O)[C@@H](Cc2c[nH]c3ccccc23)NC(=O)[C@H](Cc2ccccc2)NC(=O)[C@H](Cc2ccccc2)NC(=O)[C@H](CCCNC(=N)N)NC(=O)[C@H](N(CCSC[C@@H]2C[C@@H]3c4cccc5[nH]cc(c45)C[C@H]3N(C)C2)CCSC[C@@H]2C[C@@H]3c4cccc5[nH]cc(c45)C[C@H]3N(C)C2)CCCCNC(=O)[C@H](Cc2ccc(F)cc2)NC1=O` [Compound 39, bis[Dop1-psi(CH2N)]-cyclo(DLys-Arg-Phe-Phe-DTrp-Lys-Thr-4FPhe)] (RFF[dW]KT[Phe(4-F)]; linker N-C via X1), for which the 50% effective concentration (EC50) was determined as 25.9 ± 6.9 nM at hSSTR2 [1] and 114 ± 24.4 nM on hDRD2 [4]. In addition, the Ki was found to be 3.72 ± 2.01 nM on hSSTR2 [2] and 330 ± 59.5 nM on hDRD2 [3]. In addition, the Emax at hDRD2 [4] came out at 95.7 ± 2.4%.

In the case of `C[C@@H](O)[C@@H]1NC(=O)[C@H](CCCCN)NC(=O)[C@@H](Cc2c[nH]c3ccccc23)NC(=O)[C@H](Cc2ccccc2)NC(=O)[C@H](Cc2ccccc2)NC(=O)[C@H](CCCNC(=N)N)NC(=O)[C@H](NCCCS(=O)(=O)C[C@@H]2C[C@@H]3c4cccc5[nH]cc(c45)C[C@H]3N(C)C2)CCCCNC(=O)[C@H](Cc2ccc(F)cc2)NC1=O` [Compound 48, (D-6-methyl-8β-ergolinylmethyl)-sulfonylpropyl-cyclo(DLys-Arg-Phe-Phe-DTrp-Lys-Thr-4FPhe)], the results for the EC50 on hSSTR2 [1] and at hDRD2 [4] were 23.6 ± 7.9 nM and 78.3 ± 15.2 nM, respectively. Further, the Ki is 0.25 ± 0.1 nM on hSSTR2 [2] and 19.4 ± 2.8 nM on hDRD2 [3]. At hDRD2 [4], the Emax came to 76.5 ± 2.8%.
